Assays:
[1] = target: Alpha adrenergic α1; assay: Binding to neurotransmitter receptors: alpha1 adrenergic ([3H] Prazosin); details: α1, [3H] Prazosin; read-out: K0.5
[2] = target: T1, 5HT1A (Homo sapiens, UniProt P08908); assay: Binding to neurotransmitter receptors: 5HT1A ([3H] 8 OH DPAT); details: read-out: K0.5
T1 sequence (P08908 1-422): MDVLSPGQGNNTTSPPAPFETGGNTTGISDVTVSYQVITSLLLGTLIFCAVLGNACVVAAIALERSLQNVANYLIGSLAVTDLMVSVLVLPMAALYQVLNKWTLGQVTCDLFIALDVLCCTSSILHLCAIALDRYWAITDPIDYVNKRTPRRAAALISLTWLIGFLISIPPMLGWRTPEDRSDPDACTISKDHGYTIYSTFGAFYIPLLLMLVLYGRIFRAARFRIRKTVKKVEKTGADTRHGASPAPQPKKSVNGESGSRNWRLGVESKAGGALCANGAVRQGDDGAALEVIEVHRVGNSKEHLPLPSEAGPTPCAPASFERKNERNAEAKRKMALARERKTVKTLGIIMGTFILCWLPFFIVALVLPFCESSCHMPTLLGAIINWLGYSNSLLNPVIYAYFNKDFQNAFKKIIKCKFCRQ

[3] = target: T2, type L Ca^2+ channel (Rattus norvegicus, UniProt P22002); assay: Inhibition of 45Ca2+ influx through the Ca2+ channel in A7 r5 cells; format: cell-based
T2 construct: cell lines from the aorta of newly born rats; host or cells: A7 r5

[4] = target: Beta adrenergic β; assay: Binding to neurotransmitter receptors: beta adrenergic ([3H] DHA); details: read-out: K0.5
[5] = target: 5HT2 (Homo sapiens, UniProt P28223); assay: Binding to neurotransmitter receptors: 5HT2 ([3H] Ketanserine)
[6] = system: beagle dogs; assay: Anti-ischaemic activity, Protocol 1: tight coronary stenosis in anaesthetised beagle dogs; format: in vivo, dog
Description: The studies are carried out on beagle dogs weighing from 9 to 12 kg which have been anaesthetised with pentobarbital sodium 30 mg/kg i.v., intubated and ventilated, and subjected to a thoracotomy at the 5th left intercostal space.
An electromagnetic ring connected to a Gould SP 2202 electromagnetic flow meter is placed around the circumflex branch of the left coronary artery, and an inflatable balloon is placed just downstream of that ring for the production of coronary stenoses under the control of the coronary output.
Piezoelectric crystals (5 MHz) connected to a Triton sonomicrometer are implanted in the subendocardium of the left ventricular wall, in an area that is to become ischaemic, for measuring local myocardial contractility; epicardial electrodes are placed in the same area for recording the epicardial electrocardiogram.
Myocardial ischaemia is induced by tight coronary stenosis that reduces coronary output by about 70%.
The same coronary stenosis, the effects of which are reversible and reproducible, is produced in the same animal for two periods of 10 minutes, separated by a recovery period of 45 minutes.
Treatments are administered intravenously 2 minutes after coronary stenosis:
injection of solvent after the first coronary stenosis, which serves as control,
injection of the test product after the second coronary stenosis.
Myocardial contractility is evaluated by the proportion of systolic shortening of the lengths of the segments between the piezoelectric crystals.
Hypokinesia in the ischaemic area is expressed as percentage variation relative to the contractility measured in the control period.
Modification of the epicardial ECG in the ischaemic area consists in raising the epicardial ST segment measured in millivolts (mV).

[7] = system: neurotransmitter receptors (5HT, α,β); assay: Effect on neurotransmitter receptors (panel as a whole); format: binding; details: exception of the dopaminergic receptors
Description: The competition experiments between the different radioligands and the reference molecules are carried out under the standard binding conditions according to O'BRIEN R. A., Receptor binding in drug research. In: Clinical Pharmacology, vol. 5, DEKKER M. Inc., New York and Basle (1986). In all cases, after the required linkage time, the bound radioactivity is separated from the free component by in vacuo filtration on a GF/C filter.

[8] = target: T3, type L calcium channels (Oryctolagus cuniculus, UniProt P07293); assay: Binding: displacement of [3H] PN 200-110 at the Ca2+ channel
T3 construct: microsomal fractions enriched with type L calcium channels; from tissue; host or cells: microsomal fractions

[9] = system: cardiac cells; assay: Protection of cardiac cells from necrosis induced by intracellular acidosis (αHBDH release); format: cell-based, rat
Description: a) Cardiac cells: the cardiac cells are prepared from the hearts of newly born (3 days) Wistar rats in accordance with the technique of RENAUD JF., MEAUX JP., ROMEY G., SCHMID A., LAZDUNSKI M., Activation of the voltage-dependent Ca^2+ channels in rat heart cells by dihydropyridine derivative--Biochem. Biophys. Res. Commun., 125, 405-412 (1984).
The cardiomyocytes are isolated from the ventricles by enzymatic dissociation and cultured at 185,000 cells/cm^2. The cells are kept at 37° C. under an air/CO2 atmosphere (95 V/5 V) saturated with water. The cardiomyocytes are used between the 3rd and 8th day following culturing.
Intracellular acidosis is induced in accordance with the conditions published by RENAUD JF., Internal pH Na^+ and Ca^2+ regulation by trimetazidine during cardiac cell acidosis. Cardiovasc. Drugs and Ther., 1, 667-686 (1988) in the presence or absence of the products to be tested. Cellular necrosis is evaluated by measuring by spectrophotometry using the Boerhinger 124800 kit the kinetics of the release of a cytosolic enzyme α-hydroxybutyrate dehydrogenase (αHBDH) into the extracellular medium.
The signal measured corresponds to the amplitude of the necrosis induced by the acidosis. The values are the means ±SD. The number of experiments is indicated in parentheses.

[10] = target: T4, slow calcium channels (Rattus norvegicus, UniProt P22002); assay: Electrophysiology, whole cell patch clamp on A7 r5, slow calcium entry flow; format: cell-based
T4 construct: cell lines from the aorta of newly born rats; host or cells: A7 r5
Description: b) A7 r5 : cell lines from the aorta of newly born rats (ATCC No. CRL 1444), cultivated under the conditions indicated by the American Type Culture Collection (ATCC).
The studies were carried out on the A7 r5 cell line using the whole cell patch-clamp technique described by HAMILL O., MARTY A., WEHER E., SAKMANN B., SIGWORTH F. F., Improved patch clamp techniques for high resolution current recording from cells and cell from membrane patches. Pflugers Arch., 391, 85-100 (1981).

[11] = target: Dopamine D1 (Homo sapiens, UniProt P21728); assay: Binding to neurotransmitter receptors: D1 ([3H] SCH 23390); details: read-out: K0.5
[12] = target: Dopamine D2 (Homo sapiens, UniProt P14416); assay: Binding to neurotransmitter receptors: D2 ([3H] 205 501); details: read-out: K0.5
Dopamine D2, sequence (P14416 whole entry): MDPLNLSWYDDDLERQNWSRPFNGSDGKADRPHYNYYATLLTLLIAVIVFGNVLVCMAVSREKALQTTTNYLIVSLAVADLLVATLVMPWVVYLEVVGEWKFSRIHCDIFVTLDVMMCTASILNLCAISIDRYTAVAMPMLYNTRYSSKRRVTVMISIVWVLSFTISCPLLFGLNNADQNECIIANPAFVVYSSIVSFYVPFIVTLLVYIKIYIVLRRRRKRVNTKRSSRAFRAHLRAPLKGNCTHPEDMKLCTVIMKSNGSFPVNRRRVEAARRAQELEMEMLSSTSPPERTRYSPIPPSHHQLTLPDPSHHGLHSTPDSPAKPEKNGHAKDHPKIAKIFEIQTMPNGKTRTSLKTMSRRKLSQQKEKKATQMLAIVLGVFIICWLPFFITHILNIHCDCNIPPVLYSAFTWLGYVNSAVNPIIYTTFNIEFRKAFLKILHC

T4 sequence (P22002 whole entry): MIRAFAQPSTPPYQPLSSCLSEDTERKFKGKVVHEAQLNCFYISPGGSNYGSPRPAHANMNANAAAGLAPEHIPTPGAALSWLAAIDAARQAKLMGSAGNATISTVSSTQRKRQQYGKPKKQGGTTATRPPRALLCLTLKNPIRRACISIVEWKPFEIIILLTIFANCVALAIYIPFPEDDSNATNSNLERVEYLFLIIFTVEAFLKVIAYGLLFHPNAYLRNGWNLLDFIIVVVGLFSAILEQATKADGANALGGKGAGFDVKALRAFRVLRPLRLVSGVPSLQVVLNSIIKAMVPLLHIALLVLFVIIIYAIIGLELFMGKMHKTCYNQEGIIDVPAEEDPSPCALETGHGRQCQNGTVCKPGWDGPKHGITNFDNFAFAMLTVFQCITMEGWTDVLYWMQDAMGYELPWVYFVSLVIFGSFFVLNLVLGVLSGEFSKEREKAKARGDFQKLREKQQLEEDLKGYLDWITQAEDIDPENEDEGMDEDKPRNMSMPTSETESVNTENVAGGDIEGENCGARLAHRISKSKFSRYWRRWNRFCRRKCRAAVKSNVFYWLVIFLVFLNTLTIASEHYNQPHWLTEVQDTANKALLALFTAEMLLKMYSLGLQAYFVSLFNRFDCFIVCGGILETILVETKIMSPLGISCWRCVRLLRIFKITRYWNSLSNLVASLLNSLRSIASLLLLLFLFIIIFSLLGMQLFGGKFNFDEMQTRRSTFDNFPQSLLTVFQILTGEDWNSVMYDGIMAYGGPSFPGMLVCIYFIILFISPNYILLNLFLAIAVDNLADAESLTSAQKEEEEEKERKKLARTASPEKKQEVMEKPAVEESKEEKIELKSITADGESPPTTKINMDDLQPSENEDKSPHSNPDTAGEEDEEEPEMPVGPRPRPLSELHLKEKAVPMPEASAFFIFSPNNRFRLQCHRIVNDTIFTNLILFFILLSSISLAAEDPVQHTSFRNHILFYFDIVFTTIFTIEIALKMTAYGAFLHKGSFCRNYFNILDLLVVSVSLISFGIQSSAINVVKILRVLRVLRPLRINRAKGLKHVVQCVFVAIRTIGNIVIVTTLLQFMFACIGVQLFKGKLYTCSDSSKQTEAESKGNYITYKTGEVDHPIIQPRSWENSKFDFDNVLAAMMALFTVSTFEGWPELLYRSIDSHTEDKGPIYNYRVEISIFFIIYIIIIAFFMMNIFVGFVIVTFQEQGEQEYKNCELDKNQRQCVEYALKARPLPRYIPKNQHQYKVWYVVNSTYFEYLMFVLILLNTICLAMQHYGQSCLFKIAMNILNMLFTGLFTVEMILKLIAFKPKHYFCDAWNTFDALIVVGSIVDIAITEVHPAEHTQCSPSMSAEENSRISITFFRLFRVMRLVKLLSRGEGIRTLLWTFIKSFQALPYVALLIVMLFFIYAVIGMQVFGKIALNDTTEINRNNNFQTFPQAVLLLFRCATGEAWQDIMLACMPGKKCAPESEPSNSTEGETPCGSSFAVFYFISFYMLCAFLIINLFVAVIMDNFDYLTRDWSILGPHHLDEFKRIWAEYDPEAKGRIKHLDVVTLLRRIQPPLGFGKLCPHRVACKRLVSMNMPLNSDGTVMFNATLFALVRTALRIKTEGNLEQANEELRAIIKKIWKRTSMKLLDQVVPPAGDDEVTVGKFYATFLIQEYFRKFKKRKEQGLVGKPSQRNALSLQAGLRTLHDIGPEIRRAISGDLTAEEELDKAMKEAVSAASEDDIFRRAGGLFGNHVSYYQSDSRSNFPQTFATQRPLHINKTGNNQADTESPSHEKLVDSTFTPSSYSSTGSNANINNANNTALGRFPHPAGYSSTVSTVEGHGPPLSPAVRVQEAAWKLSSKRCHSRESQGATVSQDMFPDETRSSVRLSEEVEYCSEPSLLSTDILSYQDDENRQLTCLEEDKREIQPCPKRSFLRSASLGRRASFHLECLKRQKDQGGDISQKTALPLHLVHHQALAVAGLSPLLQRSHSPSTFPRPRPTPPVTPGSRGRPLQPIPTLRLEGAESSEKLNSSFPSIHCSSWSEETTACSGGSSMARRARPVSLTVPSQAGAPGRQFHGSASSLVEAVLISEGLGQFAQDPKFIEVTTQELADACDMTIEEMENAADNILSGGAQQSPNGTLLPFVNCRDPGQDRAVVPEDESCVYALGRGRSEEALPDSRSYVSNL
T4 sequence (P54290 25-945 partner limits assumed): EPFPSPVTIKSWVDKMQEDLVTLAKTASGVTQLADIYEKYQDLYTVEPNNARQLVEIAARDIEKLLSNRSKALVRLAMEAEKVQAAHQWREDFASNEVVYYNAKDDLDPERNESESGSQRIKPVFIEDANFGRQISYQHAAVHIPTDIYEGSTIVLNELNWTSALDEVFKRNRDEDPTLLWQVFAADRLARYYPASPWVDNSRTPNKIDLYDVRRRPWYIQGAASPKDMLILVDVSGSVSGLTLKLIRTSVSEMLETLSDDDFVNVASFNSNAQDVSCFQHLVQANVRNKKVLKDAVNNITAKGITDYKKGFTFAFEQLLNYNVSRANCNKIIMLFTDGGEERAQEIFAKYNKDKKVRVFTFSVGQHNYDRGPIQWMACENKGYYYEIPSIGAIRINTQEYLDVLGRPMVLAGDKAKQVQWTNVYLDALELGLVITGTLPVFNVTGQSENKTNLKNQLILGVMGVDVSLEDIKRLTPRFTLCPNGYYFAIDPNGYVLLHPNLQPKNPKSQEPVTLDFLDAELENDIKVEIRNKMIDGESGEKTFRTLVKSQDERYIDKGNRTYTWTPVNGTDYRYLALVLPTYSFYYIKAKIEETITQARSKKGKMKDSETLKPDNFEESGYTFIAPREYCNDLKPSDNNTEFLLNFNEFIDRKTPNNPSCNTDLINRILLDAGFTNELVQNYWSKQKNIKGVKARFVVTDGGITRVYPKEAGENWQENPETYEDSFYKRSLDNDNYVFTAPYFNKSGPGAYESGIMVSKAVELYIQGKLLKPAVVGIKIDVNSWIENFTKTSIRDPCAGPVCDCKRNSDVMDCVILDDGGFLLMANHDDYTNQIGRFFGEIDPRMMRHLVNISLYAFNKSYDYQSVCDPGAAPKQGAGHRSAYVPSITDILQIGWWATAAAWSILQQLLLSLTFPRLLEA
T4 sequence (P54290 946-1091 partner limits assumed): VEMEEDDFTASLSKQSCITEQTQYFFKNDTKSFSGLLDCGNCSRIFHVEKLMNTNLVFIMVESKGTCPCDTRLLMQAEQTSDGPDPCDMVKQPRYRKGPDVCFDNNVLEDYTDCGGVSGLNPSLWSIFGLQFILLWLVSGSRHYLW
T2 sequence (P22002 whole entry): as the sequence (P22002 whole entry) above
T2 sequence (P54290 25-945 partner limits assumed): as the sequence (P54290 25-945 partner limits assumed) above
T2 sequence (P54290 946-1091 partner limits assumed): as the sequence (P54290 946-1091 partner limits assumed) above
5HT2, sequence (P28223 whole entry, species assumed): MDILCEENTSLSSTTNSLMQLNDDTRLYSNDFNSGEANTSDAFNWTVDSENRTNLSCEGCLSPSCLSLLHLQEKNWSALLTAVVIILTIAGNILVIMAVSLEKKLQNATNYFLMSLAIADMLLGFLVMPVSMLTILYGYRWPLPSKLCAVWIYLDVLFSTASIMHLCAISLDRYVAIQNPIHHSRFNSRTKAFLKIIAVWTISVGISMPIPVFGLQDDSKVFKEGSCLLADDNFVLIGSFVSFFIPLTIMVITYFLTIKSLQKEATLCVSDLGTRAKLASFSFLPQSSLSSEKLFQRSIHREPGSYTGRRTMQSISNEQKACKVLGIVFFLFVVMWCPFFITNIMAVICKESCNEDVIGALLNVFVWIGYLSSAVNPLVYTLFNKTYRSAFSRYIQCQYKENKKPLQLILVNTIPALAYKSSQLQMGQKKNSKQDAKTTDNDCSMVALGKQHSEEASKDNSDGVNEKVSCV
Dopamine D1, sequence (P21728 whole entry): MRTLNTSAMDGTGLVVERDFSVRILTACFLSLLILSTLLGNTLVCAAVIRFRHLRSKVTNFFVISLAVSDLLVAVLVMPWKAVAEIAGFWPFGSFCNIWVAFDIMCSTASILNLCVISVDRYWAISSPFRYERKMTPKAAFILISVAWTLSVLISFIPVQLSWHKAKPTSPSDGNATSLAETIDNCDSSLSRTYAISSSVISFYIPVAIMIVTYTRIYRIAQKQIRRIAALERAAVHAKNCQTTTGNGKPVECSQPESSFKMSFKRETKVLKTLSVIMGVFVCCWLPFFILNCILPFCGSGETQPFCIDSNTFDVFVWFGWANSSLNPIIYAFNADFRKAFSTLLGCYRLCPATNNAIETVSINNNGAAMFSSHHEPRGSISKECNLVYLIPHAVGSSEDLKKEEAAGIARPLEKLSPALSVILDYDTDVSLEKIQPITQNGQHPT

- IC50 [1]: 2000 nM
- IC50 [2]: 3000 nM
- inhibition of Ca2+ influx (in words) [3]: inhibition of the influx of Ca^2+
- IC50 ([3]; 45Ca2+ influx, A7 r5 cells, read-out: K0.5 (50% of 45Ca2+ influx inhibited)): 3000 nM
- IC50 [4]: 2000 nM
- IC50 [5]: 1000 nM
- IC50 ([8]; [3H] PN 200-110, read-out: K0.5 (50% of specifically fixed radioactivity displaced)): 1000 nM
- EC50 ([10]; whole cell patch clamp, A7 r5, read-out: semi-effect (EC50), inhibition of the slow calcium entry flow): 10000 nM
- IC50 [11]: 300 nM
- IC50 [12]: 300 nM
Structure (SMILES): COc1ccc(CSC2CCN(CC=Cc3ccccc3)CC2)c(OC)c1OC [Example 1, 4-(2,3,4-trimethoxybenzylthio)-1-cinnamylpiperidine]
- Contractility delta % ([6]; 10 minutes after treatment, 1 mg/kg i.v., solvent -44.5): -24.3%
- Epicardial ST delta mV ([6]; 10 minutes after treatment, 1 mg/kg, solvent +4): +2 mV
- Epicardial ST delta mV ([6]; Stenosis (before treatment), 1 mg/kg group, solvent +4.5): +4.5 mV
- Contractility delta % ([6]; Stenosis (before treatment), 1 mg/kg i.v. group, solvent -45.8): -45%
- anti-ischaemic effect (in words) ([6]; intravenous, Protocols 1 and 2): markedly reduces both preventively and curatively the electrocardiographic modifications and the modifications of myocardial contractility induced by ischaemia
- interaction with neurotransmitter receptors (in words) [7]: interacts in a relatively non-specific manner and with low affinity with neurotransmitter receptors (5HT, α,β) with the exception of the dopaminergic receptors
- binding to the slow Ca2+ channel (in words) [8]: binds to the receptors of the slow Ca^2+ channel
- activity at 0.3 µM ([9]; Rattus norvegicus, Cardiomyocyte, 0.3 μM, control after acidosis alone 100%, before acidosis 0%, mean ±SD, read-out: amplitude of the necrosis induced by the acidosis): 144%
- activity at 1 µM ([9]; Rattus norvegicus, Cardiomyocyte, 1 μM, control after acidosis alone 100%, mean ±SD, read-out: amplitude of the necrosis induced by the acidosis): 21.9%
- activity at 3 µM ([9]; Rattus norvegicus, Cardiomyocyte, 3 μM, control after acidosis alone 100%, mean ±SD, read-out: amplitude of the necrosis induced by the acidosis): 1.42%
- activity at 10 µM ([9]; Rattus norvegicus, Cardiomyocyte, 10 μM, control after acidosis alone 100%, mean ±SD, read-out: amplitude of the necrosis induced by the acidosis): 2.14%
- activity at 30 µM ([9]; Rattus norvegicus, Cardiomyocyte, 30 μM, control after acidosis alone 100%, mean ±SD, read-out: amplitude of the necrosis induced by the acidosis): 9.68%
- minimal effective concentration ([9]; Rattus norvegicus, 1 μM and above, read-out: concentration at which protection occurs): ≥ 1 µM
- protection of cells with respect to intracellular acidosis (in words) ([9]; in vitro): protects the cardiac cell from necrosis induced by intracellular acidosis
- inhibition of slow calcium channels / Ca2+ entry flow (in words) [10]: inhibition of the Ca^2+ entry flow in a dose-dependent manner

Source: US5126356A, “Piperidine compounds” (Adir et Compagnie, priority 1989, dated 1992)
